Measurements from PMC9386018, “A lymphatic-absorbed multi-targeted kinase inhibitor for myelofibrosis therapy” (Nature Communications, 2022).
Where “and” joins values, the source holds several entries; their conditions need not be identical. Equal values may be shown once. Read-outs that look alike come from different tables or passages of the source.

Legend:
[1] = Bioavailability studies: recovery in feces and urine; type: in vivo, mouse; settings: for LP-182 Recovered (mg) Feces / LP-182 Recovered (mg) Urine / Fa: individual replicates; for Fa: from Feces, read-out: LP-182 Bioavailability (%)
Procedure: Seven groups of female CD-1 mice (n = 4 per dosing group) received a single oral dose of LP-182 at 0, 100, 200, 400, 600, 800 and 1000 mg kg^−1 solubilized in Maisine CC. […] Urine and fecal samples were collected over 24 h at 24, 48 and 72 h intervals using metabolic cages, and quantitation of LP-182 in each sample was determined by the University of Michigan Pharmacokinetics Core. Briefly, water was added to fecal samples at an average ratio of 2.5 ± 1.6 (w/w) water:feces to generate fecal homogenates using a tissue homogenizer (Omni International TH), then approximately 200 mg of homogenate was diluted 5-fold with 20% (v/v) acetonitrile in water prior to analysis. […] The cumulative amount of compound recovered over 72 h in feces and urine was determined from sample analyte concentrations provided by the core, then converted to percent recovered by normalization to the amount of compound administered. […] LP-182 dose (mg kg^−1):LP-182 administered (mg) is 100:2.7; 200:5.4; 400:10.8; 600:16.2; 800:21.6; 1000:27.0. Data was generated from n = 4 individual animals per compound dose.

[2] = Fractionation of lymphatic fluid into lipoprotein fractions by ultracentrifugation; type: in vivo; settings: rat lymphatic fluid, 50 mg kg^−1 intra-duodenal
Procedure: Briefly, acetonitrile was added to a final concentration of 60–80% to bone marrow, whole blood, plasma, lymphatic fluid, lymphatic proteo-lipid sub-fractions, or mesenteric lymph node samples for compound extraction. Extraction was performed by shaking and/or bead rupture using a Precellys Evolution tissue homogenizer (Bertin Technologies SAS). […] Optimization of MS and MS/MS parameters for MRM quantitation and maximum sensitivity of individual compounds was performed using SCIEX Analyst software (AB Sciex). […] All LC-MS/MS acquisitions were performed with an independent standard curve for each group of analytes and for each individual run. All solvents utilized were of Optima LC-MS Grade (Fisher Scientific). Data was generated from n ≥ 2 individual animals per compound per study condition or dose.

[3] = system: pERK1/2 (pT202/pY204) in splenocytes; test: MPL^W515L MF mouse model: pERK1/2 in splenocytes by flow cytometry; type: in vivo; settings: MPL^W515L mice, oral 400 mg kg^−1 daily, 28 d
Procedure: The human megakaryoblastic cell line, SET-2 (ATCC), was maintained in RPMI 1640 supplemented with 20% FBS and incubated for 16 h at 10^6 cells mL^−1 with LP-182 or vehicle (DMSO; dimethyl sulfoxide), then washed in ice-cold PBS, and collected for flow cytometry analysis. Single-cell suspensions of mouse spleen were prepared from MPL^W515L MF mice (below) in RPMI 1640 supplemented with 5% FCS. Red blood cells were lysed by ammonium chloride-mediated red cell lysis (RCL) buffer and passed through a nylon mesh, and then cells were counted. For intracellular phospho-protein staining, SET-2 or spleen cells were fixed and then permeabilized using BD Phospho-flow fixation buffer and Perm-Buffer III (BD biosciences) according to the manufacturer’s protocol. Intracellular phospho-protein staining was performed using fluorochrome-conjugated antibodies, pAKT (pS473)-Alexa Fluor 647 (MB89-61) or pERK1/2 (pT202/pY204)-Alexa Fluor 647 (20 A). […] Flow cytometry was performed on a FACS Fortessa (Becton, Dickinson and Co.) using FACSDiVa software, and data analyzed using FlowJo software (Tree Star). […]
Generation of the MPL^W515L mutant MF mouse model was similar to previously described methods. […] Development of MF was evaluated by spleen volumes using MRI beginning ~14 d following bone marrow transplantation (BMT) as outlined below, continuing weekly until end of the study. […]

In the case of `O=C(NOCCOCCOCCOCCC(=O)N1CCN(c2cnc3ccc(-c4cnc(Cl)c(NS(=O)(=O)c5ccc(F)cc5)c4)cc3n2)CC1)c1ccc(F)c(F)c1Nc1ccc(I)cc1F` [LP-182, N-(2-(2-(2-(3-(4-(7-(6-chloro-5-((4-fluorophenyl)sulfonamido)pyridin-3-yl)quinoxalin-2-yl)piperazin-1-yl)-3-oxopropoxy)ethoxy)ethoxy)ethoxy)-3,4-difluoro-2-((2-fluoro-4-iodophenyl)amino)benzamide], the “LP-182 Recovered (mg) Feces” value ([1]; Dose 100 mg/kg) is reported as 0.2704 mg and 0.2192 mg and 0.3774 mg and 0.8162 mg, the “LP-182 Recovered (mg) Feces” value ([1]; Dose 200 mg/kg) is reported as 0.8447 mg and 0.5724 mg and 1.4803 mg and 1.5068 mg and the “LP-182 Recovered (mg) Feces” value ([1]; Dose 400 mg/kg) is reported as 1.4042 mg and 2.0055 mg and 2.0997 mg and 2.356 mg. The “LP-182 Recovered (mg) Feces” value ([1]; Dose 600 mg/kg) was 3.3135 mg and 1.6755 mg and 3.7882 mg and 2.917 mg, the “LP-182 Recovered (mg) Feces” value ([1]; Dose 800 mg/kg) was 3.1521 mg and 5.2995 mg and 6.9935 mg and 3.8874 mg and the “LP-182 Recovered (mg) Feces” value ([1]; Dose 1000 mg/kg) was 3.5565 mg and 6.4352 mg and 5.241 mg and 6.6537 mg. The “LP-182 Recovered (mg) Urine” value ([1]; Dose 100 mg/kg) was 0.001008 mg and 1.367e-05 mg and 0.0001025 mg and 0.00204 mg, the “LP-182 Recovered (mg) Urine” value ([1]; Dose 200 mg/kg) was 4.24e-05 mg and 0.0002221 mg and 5.303e-05 mg and 0.0002304 mg and the “LP-182 Recovered (mg) Urine” value ([1]; Dose 400 mg/kg) was 0.0004111 mg and 0.000386 mg and 0.0002292 mg and 0.001169 mg. For the same molecule, the “LP-182 Recovered (mg) Urine” value ([1]; Dose 600 mg/kg) was 0.00017 mg and 0.02442 mg and 0.000379 mg and 0.001062 mg, the “LP-182 Recovered (mg) Urine” value ([1]; Dose 800 mg/kg) was 2.655e-05 mg and 0.001833 mg and 0.0008829 mg and 0.0002937 mg and the “LP-182 Recovered (mg) Urine” value ([1]; Dose 1000 mg/kg) was 0.0001091 mg and 2.205e-05 mg and 2.702e-05 mg and 0.001664 mg. The Fa ([1]; female, CD-1, mouse, feces, oral, 200 mg/kg, Dose 200 mg/kg) was 84.4%, the Fa ([1]; female, CD-1, mouse, feces, oral, 400 mg/kg, Dose 400 mg/kg) was 87% and the Fa ([1]; female, CD-1, mouse, feces, oral, 600 mg/kg, Dose 600 mg/kg) was 79.5%. For the same molecule, the Fa ([1]; female, CD-1, mouse, feces, oral, 800 mg/kg, Dose 800 mg/kg) was 85.4%, the Fa ([1]; female, CD-1, mouse, feces, oral, 1000 mg/kg, Dose 1000 mg/kg) was 86.8% and the dose excreted at 24 h ([1]; female, CD-1, mouse, mice, oral, feces collected after 24 h, read-out: recovery from fecal samples, % of total recovered) was roughly 95%. For the same molecule, the dose excreted at 48 h ([1]; female, CD-1, mouse, mice, oral, feces collected after 48 h, read-out: recovery from fecal samples, % of total recovered) was 5%, the Fa ([1]; Dose 100 mg/kg, 100 mg/kg) was 90% and 91.9% and 86% and 69.8% and the Fa ([1]; Dose 200 mg/kg, 200 mg/kg) was 89.4% and 72.6% and 72.1%. The Fa ([1]; Dose 400 mg/kg, 400 mg/kg) was 81.4% and 80.6% and 78.2%, the Fa ([1]; Dose 600 mg/kg, 600 mg/kg) was 89.7% and 76.6% and 82% and the Fa ([1]; Dose 800 mg/kg, 800 mg/kg) was 75.5% and 67.6% and 82%. The Fa ([1]; Dose 1000 mg/kg, 1000 mg/kg) was 76.2% and 80.6% and 75.4%, the “dose-independent fecal excretion (% drug recovered) of intact compound” value ([1]; mice, oral 100-1000 mg kg^−1, over 72 h) was “approximately 20%” and the “amount recovered in the urine” value ([1]; mice, oral, all time points (24, 48, 72 h)) was “negligible amounts”. For the same molecule, the “oral bioavailability, lower threshold limit” value ([1]; mice, difference of administered and recovered in feces over 72 h) was no less than 80%, the “association with VLDL fraction, % of total” value [2] was 9.7% and the “association with chylomicron fraction, % of total” value [2] was 8.0%. The “active ERK1/2 level in splenocytes” value [3] was “reduced active AKT and ERK1/2 levels to those comparable to healthy control mice”.
